# From patent US9822124B2, “Bicyclic heteroaromatic carboxamide compounds useful as Pim kinase inhibitors” (Incyte Corporation, priority 2014, dated 2017)
# Assays:
# Format in all cases: biochemical
# Pim-1 = Pim-1 (Homo sapiens (Human), UniProt P11309); assay: Pim-1 kinase assay (AlphaScreen, Biotin-labeled BAD peptide substrate); details: 1 mM ATP; read-out: Pim1 IC50
# Method: (§1) Pim-1 and Pim-3 kinase assays—20 μL reactions were run in white 384 well polystyrene plates dotted with 0.8 μL compound/DMSO in the assay buffer (50 mM Tris, pH 7.5, 0.01% Tween-20, 5 mM MgCl2, 0.01% BSA, 5 mM DTT), containing 0.05 μM Biotin-labeled BAD peptide substrate (AnaSpec 62269), 1 mM ATP, and […] (Pim-1, Invitrogen PV3503) or […] (Pim-3, Millipore 14-738) enzyme for 1 h at 25° C. Reactions were stopped by addition of 10 μL STOP Buffer (150 mM Tris, pH=7.5, 150 mM NaCl, 75 mM EDTA, 0.01% Tween-20, 0.3% BSA) supplemented with Phospho-Bad (Ser112) Antibody (Cell Signaling 9291) diluted 666-fold, and Streptavidin donor beads (PerkinElmer 6760002) along with Protein-A acceptor beads (PerkinElmer 6760137) at 15 μg/mL each. Supplementation of the STOP buffer with beads and stopping the reactions were done under reduced light. Prior to the stopping reactions STOP buffer with beads was preincubated for 1 h in the dark at room temperature. After stopping the reactions, plates were incubated for 1 h in the dark at room temperature before reading on a PHERAstar FS plate reader (BMG Labtech) under reduced light.
# Pim-3 = Pim-3 (Homo sapiens (Human), UniProt Q86V86); assay: Pim-3 kinase assay (AlphaScreen, Biotin-labeled BAD peptide substrate); details: 1 mM ATP; read-out: Pim3 IC50
# Method: as §1
# Pim-2 = Pim-2 (Homo sapiens (Human), UniProt Q9P1W9); assay: Pim-2 kinase assay (TR-FRET, Fluorescein-labeled CREBtide peptide substrate); details: 1 mM ATP; read-out: Pim2 IC50
# Chain of Pim-2 (Q9P1W9 whole entry): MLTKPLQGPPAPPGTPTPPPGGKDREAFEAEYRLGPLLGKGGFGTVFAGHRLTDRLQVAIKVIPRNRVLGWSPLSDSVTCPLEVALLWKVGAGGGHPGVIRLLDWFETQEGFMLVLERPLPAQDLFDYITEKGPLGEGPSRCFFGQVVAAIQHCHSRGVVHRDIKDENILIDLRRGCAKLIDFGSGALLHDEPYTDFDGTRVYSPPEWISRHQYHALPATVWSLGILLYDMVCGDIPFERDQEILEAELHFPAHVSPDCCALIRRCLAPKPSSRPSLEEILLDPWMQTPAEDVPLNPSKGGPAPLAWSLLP
# Method: Pim-2 kinase assay—20 μL reactions were run in white 384 well polystyrene plates dotted with 0.8 μL compound/DMSO in the assay buffer (50 mM Tris, pH 7.5, 0.01% Tween-20, 5 mM MgCl2, 0.01% BSA, 5 mM DTT), containing 0.05 μM Fluorescein-labeled CREBtide peptide substrate (Invitrogen PV3508), 1 mM ATP, and 1 nM enzyme (Invitrogen PV3649) for 2 h at 25° C. Reactions were stopped by addition of 10 μL TR-FRET Dilution Buffer (Invitrogen PV3574) with 30 mM EDTA and 1.5 nM LanthaScreen Tb-CREB pSer133 antibody (Invitrogen PV3566). After 30 min. incubation at room temperature, plates were read on a PHERAstar FS plate reader (BMG Labtech).
# Chain of Pim-1 (P11309 whole entry): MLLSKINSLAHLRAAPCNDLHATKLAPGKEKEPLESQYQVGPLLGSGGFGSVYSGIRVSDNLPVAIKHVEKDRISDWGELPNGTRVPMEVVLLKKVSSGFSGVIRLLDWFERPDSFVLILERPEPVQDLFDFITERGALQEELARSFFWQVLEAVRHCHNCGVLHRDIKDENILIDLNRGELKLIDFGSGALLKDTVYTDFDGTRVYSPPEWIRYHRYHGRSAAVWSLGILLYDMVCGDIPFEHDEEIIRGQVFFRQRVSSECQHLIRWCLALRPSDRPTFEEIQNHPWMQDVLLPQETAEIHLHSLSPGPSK
SMILES,IC50 (Pim-1),IC50 (Pim-3),IC50 (Pim-2)
"CC(C)c1coc2ccc(C(=O)Nc3cnccc3N3C[C@@H](N)[C@H](O)[C@@H](C)C3)nc12 [Example 10, N-(4-((3R,4R,5S)-3-Amino-4-hydroxy-5-methylpiperidin-1-yl)pyridin-3-yl)-3-isopropylfuro[3,2-b]pyridine-5-carboxamide]",≤ 10 nM,≤ 10 nM,≤ 100 nM
"COc1ccc(-c2cc3nc(C(=O)Nc4cnccc4N4C[C@@H](N)[C@H](O)[C@@H](C)C4)ccc3o2)cn1 [Example 7, N-(4-((3R,4R,5S)-3-Amino-4-hydroxy-5-methylpiperidin-1-yl)pyridin-3-yl)-2-(6-methoxypyridin-3-yl)furo[3,2-b]pyridine-5-carboxamide]",≤ 10 nM,≤ 10 nM,> 2000 nM
"CC(C)c1cc2nc(C(=O)Nc3cnccc3N3C[C@H](C)C[C@H](N)C3)ccc2o1 [Example 2, N-{4-[(3S,5R)-3-Amino-5-methylpiperidin-1-yl]pyridin-3-yl}-2-isopropylfuro[3,2-b]pyridine-5-carboxamide]",10 to 50 nM,≤ 10 nM,100 to 1000 nM
"C[C@H]1CN(c2ccncc2NC(=O)c2ccc3oc(-c4ccc(N5CCOCC5)nc4)cc3n2)C[C@@H](N)[C@@H]1O [Example 9, N-(4-((3R,4R,5S)-3-Amino-4-hydroxy-5-methylpiperidin-1-yl)pyridin-3-yl)-2-(6-morpholinopyridin-3-yl)furo[3,2-b]pyridine-5-carboxamide]",≤ 10 nM,≤ 10 nM,1000 to 10000 nM
"C[C@@H]1C[C@H](N)CN(c2ccncc2NC(=O)c2ccc3sc(C4CC4)nc3n2)C1 [Example 80, N-(4-((3S,5R)-3-Amino-5-methylpiperidin-1-yl)pyridin-3-yl)-2-cyclopropylthiazolo[4,5-b]pyridine-5-carboxamide]",≤ 10 nM,≤ 10 nM,100 to 1000 nM
"C[C@@H]1C[C@H](N)CN(c2ccncc2NC(=O)c2ccc3occ(-c4cncnc4)c3n2)C1 [Example 30, N-(4-((3S,5R)-3-Amino-5-methylpiperidin-1-yl)pyridin-3-yl)-3-(pyrimidin-5-yl)furo[3,2-b]pyridine-5-carboxamide]",10 to 50 nM,> 40 nM,> 2000 nM
"C[C@@H]1C[C@H](N)CN(c2ccncc2NC(=O)c2ccc3oc(-c4ccc(N5CCOCC5)nc4)cc3n2)C1 [Example 5, N-(4-((3S,5R)-3-Amino-5-methylpiperidin-1-yl)pyridin-3-yl)-2-(6-morpholinopyridin-3-yl)furo[3,2-b]pyridine-5-carboxamide]",≤ 10 nM,≤ 10 nM,1000 to 10000 nM
"CC(C)c1coc2ccc(C(=O)Nc3cnccc3N3CCC[C@H](N)C3)nc12 [Example 36, (S)-N-(4-(3-Aminopiperidin-1-yl)pyridin-3-yl)-3-isopropylfuro[3,2-b]pyridine-5-carboxamide]",≤ 10 nM,≤ 10 nM,≤ 100 nM
"C[C@@H]1C[C@H](N)CN(c2ccncc2NC(=O)c2ccc3occ(-c4cnoc4)c3n2)C1 [Example 28, N-(4-((3S,5R)-3-Amino-5-methylpiperidin-1-yl)pyridin-3-yl)-3-(isoxazol-4-yl)furo[3,2-b]pyridine-5-carboxamide]",≤ 10 nM,10 to 50 nM,> 2000 nM
"CC(C)c1coc2ccc(C(=O)Nc3cnccc3N3C[C@H](C)C[C@H](N)C3)nc12 [Example 18, N-(4-((3S,5R)-3-Amino-5-methylpiperidin-1-yl)pyridin-3-yl)-3-isopropylfuro[3,2-b]pyridine-5-carboxamide]",≤ 10 nM,≤ 10 nM,≤ 100 nM
"C[C@@H]1C[C@H](N)CN(c2ccncc2NC(=O)c2ccc3scc(-c4cnn(C)c4)c3n2)C1 [Example 63, N-(4-((3S,5R)-3-Amino-5-methylpiperidin-1-yl)pyridin-3-yl)-3-(1-methyl-1H-pyrazol-4-yl)thieno[3,2-b]pyridine-5-carboxamide]",≤ 10 nM,> 40 nM,> 2000 nM
"C[C@@H]1C[C@H](N)CN(c2ccncc2NC(=O)c2ccc3sc(-c4ccccc4F)cc3n2)C1 [Example 53, N-(4-((3S,5R)-3-Amino-5-methylpiperidin-1-yl)pyridin-3-yl)-2-(2-fluorophenyl)thieno[3,2-b]pyridine-5-carboxamide]",≤ 10 nM,≤ 10 nM,100 to 1000 nM
"C[C@H]1CN(c2ccncc2NC(=O)c2ccc3cc([C@H]4C[C@@H]4c4ccccc4)oc3n2)C[C@@H](N)[C@@H]1O [Example 72, N-(4-((3R,4R,5S)-3-Amino-4-hydroxy-5-methylpiperidin-1-yl)pyridin-3-yl)-2-((1S,2S)-2-phenylcyclopropyl)furo[2,3-b]pyridine-6-carboxamide]",≤ 10 nM,≤ 10 nM,1000 to 10000 nM
"CC(C)c1cnn2ccc(C(=O)Nc3cnccc3[C@@H]3C[C@H](C)C[C@H](N)C3)nc12 [Example 82, N-{4-[(1R,3S,5S)-3-Amino-5-methylcyclohexyl]pyridin-3-yl}-3-isopropylpyrazolo[1,5-a]pyrimidine-5-carboxamide]",≤ 10 nM,10 to 50 nM,1000 to 10000 nM
"C[C@H]1CN(c2ccncc2NC(=O)c2ccc3oc(-c4c(F)cccc4F)cc3n2)C[C@@H](N)[C@@H]1O [Example 8, N-(4-((3R,4R,5S)-3-Amino-4-hydroxy-5-methylpiperidin-1-yl)pyridin-3-yl)-2-(2,6-difluorophenyl)furo[3,2-b]pyridine-5-carboxamide]",≤ 10 nM,10 to 50 nM,> 2000 nM
"C[C@H]1CN(c2ccncc2NC(=O)c2ccc3cc(C4CC4)oc3n2)C[C@@H](N)[C@@H]1O [Example 69, N-{4-[(3R,4R,5S)-3-Amino-4-hydroxy-5-methylpiperidin-1-yl]pyridin-3-yl}-2-cyclopropylfuro[2,3-b]pyridine-6-carboxamide]",≤ 10 nM,≤ 10 nM,≤ 100 nM
"C[C@@H]1C[C@H](N)CN(c2ccncc2NC(=O)c2ccc3sc(-c4c(F)cccc4F)cc3n2)C1 [Example 52, N-(4-((3S,5R)-3-Amino-5-methylpiperidin-1-yl)pyridin-3-yl)-2-(2,6-difluorophenyl)thieno[3,2-b]pyridine-5-carboxamide]",≤ 10 nM,≤ 10 nM,100 to 1000 nM
"C[C@@H]1C[C@H](N)CN(c2ccncc2NC(=O)c2ccc3occ(-c4cnn(C)c4)c3n2)C1 [Example 29, N-(4-((3S,5R)-3-Amino-5-methylpiperidin-1-yl)pyridin-3-yl)-3-(1-methyl-1H-pyrazol-4-yl)furo[3,2-b]pyridine-5-carboxamide]",≤ 10 nM,10 to 50 nM,1000 to 10000 nM
"N[C@H]1CCCN(c2ccncc2NC(=O)c2ccc3occ(-c4c(F)cccc4F)c3n2)C1 [Example 37, (S)-N-(4-(3-Aminopiperidin-1-yl)pyridin-3-yl)-3-(2,6-difluorophenyl)furo[3,2-b]pyridine-5-carboxamide]",≤ 10 nM,≤ 10 nM,≤ 100 nM
"CC(C)c1csc2ccc(C(=O)Nc3cnccc3N3C[C@H](C)C[C@H](N)C3)nc12 [Example 62, N-(4-((3S,5R)-3-Amino-5-methylpiperidin-1-yl)pyridin-3-yl)-3-isopropylthieno[3,2-b]pyridine-5-carboxamide]",≤ 10 nM,≤ 10 nM,≤ 100 nM
"C[C@@H]1C[C@H](N)C[C@H](c2ccncc2NC(=O)c2ccn3ncc(-c4c(F)cccc4F)c3n2)C1 [Example 83, N-{4-[(1R,3S,5S)-3-Amino-5-methylcyclohexyl]pyridin-3-yl}-3-(2,6-difluorophenyl)pyrazolo[1,5-a]pyrimidine-5-carboxamide]",≤ 10 nM,≤ 10 nM,100 to 1000 nM
"CCCc1cc2nc(C(=O)Nc3cnccc3N3C[C@H](C)C[C@H](N)C3)ccc2s1 [Example 50, N-(4-((3S,5R)-3-Amino-5-methylpiperidin-1-yl)pyridin-3-yl)-2-propylthieno[3,2-b]pyridine-5-carboxamide]",≤ 10 nM,≤ 10 nM,≤ 100 nM
"COc1ccc(-c2coc3ccc(C(=O)Nc4cnccc4N4C[C@H](C)C[C@H](N)C4)nc23)cn1 [Example 23, N-(4-((3S,5R)-3-Amino-5-methylpiperidin-1-yl)pyridin-3-yl)-3-(6-methoxypyridin-3-yl)furo[3,2-b]pyridine-5-carboxamide]",≤ 10 nM,10 to 50 nM,1000 to 10000 nM
